In patent publication US10016414B2, “Modulation of ubiquitination of synaptic proteins for the treatment of neurodegenerative and psychiatric disorders” (UNIVERSITY OF MASSACHUSETTS, priority 2010, dated 2018):

Assays:
[1] = system: surface GluA1 (AMPAR) in hippocampal neurons; experiment: Aβ-induced AMPAR endocytosis: surface GluA1 in cultured hippocampal neurons; assay type: cell-based, rat; details: for GluA1 surface expression (GluA1 puncta normalized to SV2 puncta and to naïve cultures): 2 hrs, naïve 100%±4%, n=3
Procedure: A. Micrograph showing GluA2 surface expression upon Aβ treatment in the presence or absence of Nutlin-3. Rat hippocampal neurons were cultured, and treated with Aβ or Aβ together with either Nutlin-3 (5 μM) or HLI373 (15 μM) for 2 hours. The final concentration of Aβ was 0.3 ng/mL. Naïve and Nutlin-3 and HLI373 treatments, without Aβ treatment, were used as controls. Surface expression of AMPARs was measured by labeling the cultured neurons in vivo with an antibody to the AMPAR subunit GluA1, followed by confocal microscopy and immunofluorescence quantification by MetaMorph. The number of GluA1 puncta was normalized to SV2 puncta (a presynaptic marker) and to the value in control naïve cultures. […] Scale bar=5 μm. B. Bar graph showing quantification of the percentage of surface GluA1 in response to the various treatment described in A. Results are presented as mean±SEM.
Soluble amyloid beta (Aβ) peptides contribute directly to synapse loss and decreased dendritic spine density and glutamate receptors at the synapse. Moreover, Aβ has been reported to induce AMPAR internalization in cultured neurons. To evaluate the effect of Mdm2 inhibitors on this process, cultured rat hippocampal neurons were treated for 2 hrs with Aβ (or Aβ together with either Nutlin-3 (5 μM) or HLI-373 (15 μM). Aβ can be prepared from 7PA2 Chinese hamster ovary (CHO) cells stably expressing human amyloid precursor protein (APP)751 containing the V717 mutation (Walsh et al., 2005; Shankar et al., 2007; Shankar et al., 2011), and is also available commercially from, e.g., rPeptide (Bogart, G A). The concentration of Aβ in the hippocampal cultures was 0.3 ng/mL. Naïve and Nutlin-3 and HLI-373 treatments were used as controls. Surface expression of AMPARs was measured by labeling the cultured neurons in vivo with an antibody to the AMPAR subunit GluA1, followed by confocal microscopy and immunofluorescence quantification by MetaMorph. The number of GluA1 puncta was normalized to SV2 puncta (a presynaptic marker) and to the value in control naïve cultures (see FIGS. 8A and B).
Minimum inhibitor concentrations of Nutlin-3a or HLI-373, as well as any other Mdm2 inhibitor identified using the screens described supra, can be readily determined by using different ranges of inhibitor concentrations and assessing the effects of the particular concentrations on surface expression of AMPARs. Similar results are expected with other inhibitors of PSD-95 ubiquitination by Mdm2, such as PSD-95 inhibitors.

[2] = oral gavage, 100 mg/kg once daily; between 1-8 hours after administration (Zhang et al., 2011); cited from earlier work
[3] = target: T1, interaction between PSD-95 and Mdm2 (Mus musculus, UniProt P23804); experiment: Mdm2 binding to PSD-95 in acute forebrain slices (Mdm2 immunoprecipitation, PSD-95 Western blot); assay type: cell-based; details: Nutlin-3 5 μM for 30 min, normalized to absence of Nutlin-3
T1 construct: from tissue; host or cells: acute mouse forebrain slices
Procedure: A. Immunoblot showing the interaction between Mdm2 and PSD-95 in the presence or absence of the Mdm2 inhibitor Nutlin-3. Acute mouse forebrain slices were treated with Nutlin-3 (5 μM for 30 min), followed by immunoprecipitation of Mdm2. Immunoprecipitates were subjected to Western blot analysis with anti-PSD-95 and anti-Mdm2 antibodies. IgG: control immunoprecipitation with mouse IgG.
B. A bar graph depicting the proportion of PSD-95 bound to Mdm2 from FIG. 6A, normalized to levels of PSD-95 bound to Mdm2 in the absence of Nutlin-3. There was a 60% decrease in the interaction of PSD-95 with Mdm2.
To test this hypothesis, acute mouse forebrain slices were prepared and subjected to treatment with or without Nutlin-3. The interaction between PSD95 and Mdm2 was assessed by immunoprecipitation of Mdm2, followed by Western blot analysis to assess the extent of PSD-95 binding. Consistent with PSD-95 binding to the same region of Mdm2 as other Mdm2 substrates, Nutlin-3 decreased the interaction between PSD-95 with Mdm2 by 60% (FIGS. 6A and B).

[4] = system: surface GluA2 (AMPAR) in hippocampal neurons; experiment: NMDA-induced AMPAR endocytosis: surface GluA2 by antibody feeding in hippocampal cultures; assay type: cell-based, rat; details: inhibitor 5 μM for 30 min before NMDA 100 μM for 3 min, then 15 min; naïve 100%±9.47%; n=3
Procedure: A. Micrograph showing GluA2 surface expression upon NMDA treatment in the presence or absence of Nutlin-3. Cultured hippocampal neurons were subjected to an antibody feeding protocol using an antibody that recognizes an extracellular domain of GluA2. The neurons were subsequently pretreated with Nutlin-3 (5 μM for 30 min) prior to NMDA treatment (100 μM for 3 min), followed by agonist washout. Neurons were incubated for an additional 15 min (with or without Nutlin-3) before immunocytochemical analysis of PSD-95 and surface GluA2 by confocal microscopy.
B. A bar graph depicting the proportion of GluA2 found at the surface of cultured hippocampal neurons upon treatment with or without NMDA, in the presence or absence of Nutlin-3. Results are presented as mean±SEM.
Brief stimulation of NMDARs induces AMPAR endocytosis in cultured neurons (Colledge et al., 2003; Bhattacharyya et al., 2009). To determine whether Nutlin-3a antagonizes NMDA-induced AMPAR endocytosis, measured as loss of surface AMPAR staining, the surface expression of GluA2 (a subunit of AMPARs in rat hippocampal cultures) was assessed. Surface GluA2 were labeled in vivo by an antibody feeding protocol using an antibody that recognizes an extracellular domain of GluA2 (Ehlers, 2000; Lin et al., 2000; Bhattacharyya et al., 2009). Neurons were pretreated with Nutlin-3a (5 μM for 30 min) prior to NMDA treatment. After brief stimulation with NMDA (100 μM for 3 min) and agonist washout, neurons were incubated for an additional 15 min (with or without Nutlin-3a) before immunocytochemical analysis of PSD-95 and surface GluA2 by confocal microscopy under the same settings. Immunostained puncta were quantified using MetaMorph software (3 neurons from 2 coverslips with approximately 450 puncta analyzed/condition) and the number of GluA2 puncta was normalized to the number of PSD-95 puncta.
Naïve and NMDA-stimulated conditions were used as controls. […]

T1 sequence (P23804 whole entry): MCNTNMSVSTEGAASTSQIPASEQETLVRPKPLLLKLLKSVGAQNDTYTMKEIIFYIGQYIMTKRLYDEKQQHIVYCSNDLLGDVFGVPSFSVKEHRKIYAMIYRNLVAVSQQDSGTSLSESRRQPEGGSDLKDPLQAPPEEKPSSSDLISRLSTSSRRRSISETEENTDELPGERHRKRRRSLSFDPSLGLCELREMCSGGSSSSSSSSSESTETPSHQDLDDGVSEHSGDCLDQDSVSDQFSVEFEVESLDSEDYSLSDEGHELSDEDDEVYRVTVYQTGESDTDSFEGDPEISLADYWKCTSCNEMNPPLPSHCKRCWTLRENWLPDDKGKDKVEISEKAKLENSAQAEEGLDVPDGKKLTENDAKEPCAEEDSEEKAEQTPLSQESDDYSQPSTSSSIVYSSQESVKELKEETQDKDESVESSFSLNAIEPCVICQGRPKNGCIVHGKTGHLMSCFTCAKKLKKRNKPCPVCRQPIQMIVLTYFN

SMILES	GluA1 surface expression (GluA1 puncta normalized to SV2 puncta and to naïve cultures) ([1]; co-treatment with Aβ 0.3 ng/mL, Nutlin 5 μM, HLI373 15 μM)	concentration in brain tissue [2] [nM]	decrease in the interaction of PSD-95 with Mdm2 [3] [%]	effect on loss of surface GluA1 induced by Aβ ([1]; Aβ 0.3 ng/mL, 2 hours, Nutlin-3 5 μM, HLI373 15 μM)	GluA1 surface expression (GluA1 puncta normalized to SV2 puncta and to naïve cultures) ([1]; inhibitor alone, without Aβ, Nutlin-3 5 μM, HLI-373 15 μM)	GluA2 surface expression (GluA2 puncta normalized to PSD-95 puncta, versus naïve control) [4] [%]
COc1ccc(C2=NC(c3ccc(Cl)cc3)C(c3ccc(Cl)cc3)N2C(=O)N2CCNC(=O)C2)c(OC(C)C)c1 (single isomer, unassigned; (-)) [Nutlin-3a, (−)-4-(4,5-bis(4-chlorophenyl)-2-(2-isopropoxy-4-methoxyphenyl)-4,5-dihydro-1H-imidazole-1-carbonyl)piperazin-2-one]	152.29%±19.88%	1000 to 2000	–	–	–	–
COc1ccc(C2=N[C@@H](c3ccc(Cl)cc3)[C@@H](c3ccc(Cl)cc3)N2C(=O)N2CCNC(=O)C2)c(OC(C)C)c1 [Nutlin-3]	–	–	60	prevented the loss of surface GluA1 induced by Aβ treatment	90.6%±3.71%	60.86±3.98
